According to patent publication US8889883B2, “BODIPY structure fluorescence dye for neural stem cell probe” (National University of Singapore, priority 2010, dated 2014):

Tested on: E14.5 fetal mouse brain cells
Test: Neurosphere assay of FACS-sorted fetal mouse brain cells
Type: cell-based
Settings: CDr3, SSEA-1, Aldefluor, CD133 sorted cells
Protocol: Next, we were interested to test whether CDr3 can be used for the isolation of NSC from the heterogeneous populations of cells. According to the protocol described by Bibel et al.^7, we induced differentiation of E14 to generate FABP7-positive radial glial cells. The embryoid bodies generated from E14 in the absence of leukemia inhibitory factor were treated with retinoic acid for 2 days until dissociation into single cell suspension. The cells were stained with CDr3 and the CDr3bright and CDr3dim cells were collected separately by FACS. Each cell population was stained with FABP7 antibody and analyzed by flow cytometry. […] For the NSC isolation from the brain tissue, we incubated the E14.5 fetal mouse brain primary cells with CDr3, and the CDr3^bright and CDr3^dim cells were collected separately by FACS for gene expression analysis by real time RT-PCR and neurosphere assay. The expression levels of FABP7, Hes1, Musashi, Nestin and Pax6 in CDr3^bright cells were more than 3-fold higher than in CDr3^dim cells, while the differences of Hes5, Sox2 and Bmi1 expression levels were less than 2-fold (FIG. 5). […]
E14.5 fetal mouse brains were trypsinized in 0.25% trypsin with 1 mM EDTA solution (Invitrogen) for 30 mins at 37° C. before neutralization with FBS. […] The number and size of neurospheres generated from each group were measured after 6 days culture. […]

Cc1cc(C)n2c1C=C1C=CC(CCC(=O)NCC=O)=[N+]1[B-]2(F)F [Aldefluor, BODIPY-aminoacetaldehyde]
sizes of neurospheres from sorted cells: all similar
